Among the data in ChEMBL document CHEMBL4825738, “EGFR-targeted prodrug activation using bioorthogonal alkene-azide click-and-release chemistry” (Bioorg Med Chem, 2021) are IC50 and MST values, retold here.

In assay [1] the test system is B16-F10-luc2. The experiment in a line: Cytotoxicity against mouse B16-F10-Luc2 cells measured after 72 hrs by resazurin assay. It counts as cell-based. To be noted: B16-F10-luc2, 72 h. Background: Alamar Blue is a resazurin reagent that responds to reducing activity.
In assay [2] the test system is B16-F10-luc2. The experiment in a line: Cytotoxicity against mouse B16-F10-Luc2 cells expressing human EGFR measured after 72 hrs in presence of AB-TCO3 conjugates by resazurin assay. It counts as functional, cell-based. The conditions noted are these: B16-F10-luc2, 72 h.
In assay [3] the test system is B16-F10-luc2. The experiment in a line: Cytotoxicity against mouse B16-F10-Luc2 cells expressing human EGFR measured after 72 hrs by resazurin assay. It counts as cell-based. The conditions noted are these: B16-F10-luc2, 72 h.
Assay [4] relates to B16-F10-luc2. Kind of assay: Cytotoxicity against mouse B16-F10-Luc2 cells expressing human EGFR measured after 72 hrs in presence of AB-TCO4 conjugates by resazurin assay. It counts as functional, cell-based. To be noted: B16-F10-luc2, 72 h.
Assay [5] concerns B16-F10-luc2. Kind of assay: Cytotoxicity against mouse B16-F10-Luc2 cells in the measured after 72 hrs in presence of AB-TCO3 conjugate by resazurin assay. In kind it is functional, cell-based. To be noted: B16-F10-luc2, 72 h.
The subject of assay [6] is B16-F10-luc2. The experiment in a line: Anti tumour activity in C57BL/6 mouse implanted with B16-F10-Luc2 murine cells assessed as median survival time at 5.9 mg/kg, iv administered for 6 hrs followed by antibody conjugate treatment. It counts as functional.
Assay [7] relates to B16-F10-luc2. The experiment in a line: Cytotoxicity against mouse B16-F10-Luc2 cells expressing human EGFR measured after 72 hrs in presence of AB-TCO2 conjugates by resazurin assay. In kind it is functional, cell-based. To be noted: B16-F10-luc2, 72 h.
In assay [8] the test system is B16-F10-luc2. The experiment in a line: Cytotoxicity against mouse B16-F10-Luc2 cells measured after 72 hrs in presence of AB-TCO2 conjugate by resazurin assay. In kind it is functional, cell-based. The conditions noted are these: B16-F10-luc2, 72 h.
Assay [9] relates to B16-F10-luc2. The experiment in a line: Cytotoxicity against mouse B16-F10-Luc2 cells expressing EGFR measured after 72 hrs in presence of 3.3 uM cetuximab by resazurin assay. In kind it is functional, cell-based. To be noted: B16-F10-luc2, 72 h.
The subject of assay [10] is B16-F10-luc2. Kind of assay: Cytotoxicity against mouse B16-F10-Luc2 cells expressing EGFR measured after 72 hrs in absence of cetuximab by resazurin assay. In kind it is functional, cell-based. To be noted: B16-F10-luc2, 72 h.
Assay [11] deals with B16-F10-luc2. Kind of assay: Anti tumour activity in C57BL/6 mouse implanted with B16-F10-Luc2 murine cells assessed as median survival time at 4.5 mg/kg, ip administered for 24 hrs followed by antibody conjugate treatment. In kind it is functional.

In general, IC50 refers to the concentration needed to halve the response being measured. For the molecule `COc1cccc2c1C(=O)c1c(O)c3c(c(O)c1C2=O)C[C@@](O)(C(=O)CO)C[C@@H]3O[C@H]1C[C@H](NC(=O)OCc2ccc(N=[N+]=[N-])cc2)[C@H](O)[C@H](C)O1`, the half-maximal inhibitory concentration (IC50) in [1] was found to be 4490 nM; in assay [2], 120 nM; in assay [3], 1680 nM; in assay [4] it was 2090 nM; in [5], 3440 nM; in assay [7], 780 nM. The IC50 in assay [8] was found to be 5140 nM. Moreover, in assay [6], the MST was determined as 26 days.
For the molecule `COc1cccc2c1C(=O)c1c(O)c3c(c(O)c1C2=O)C[C@@](O)(C(=O)CO)C[C@@H]3O[C@H]1C[C@H](N)[C@H](O)[C@H](C)O1` [DOXORUBICIN], the IC50 in assay [1] is 110 nM; in assay [3], 40 nM; in assay [9] it was 90 nM; in [10], 40 nM. In addition, in [11], the MST worked out at 39 days.
